Measurements reported in ChEMBL document CHEMBL1130813, “Novel euglycemic and hypolipidemic agents: Part-2. Antioxidant moiety as structural motif” (1998).
Activity calls are given as the source filed them. The calls are words filed in the database; no cut-off is given here.

How the values were obtained:
Mus musculus [1] = test: Percent reduction in plasma blood glucose level was evaluated in mice at a dose of 200 mg/kg/day p.o. for 9 days; format: functional; settings: route oral
Mus musculus [2] = test: Percent reduction in plasma triglyceride level was evaluated in mice at a dose of 200 mg/kg/day p.o. for 9 days; format: functional; settings: route oral
Mus musculus [3] = test: Percent reduction in plasma triglyceride level was evaluated in mice at a dose of 200 mg/kg/day p.o. for 9 days; not applicable; format: functional, organism-based

| Structure (SMILES) | Reduction (Mus musculus [1]) [%] | Reduction (Mus musculus [2]) [%] | Reduction (Mus musculus [3]) |
| --- | --- | --- | --- |
| CCN(CCOc1ccc(/C=C2\SC(=O)NC2=O)cc1)CC1(C)CCc2c(C)c(O)c(C)c(C)c2O1 (stereo not given) | 2 | 76 |  |
| CC(=O)O.Cc1c(C)c2c(c(C)c1O)CCC(C)(CN(C)CCOc1ccc(/C=C3\SC(=O)NC3=O)cc1)O2 (stereo not given) | 11 | 31 |  |
| Cc1c(C)c2c(c(C)c1O)CCC(C)(CN(C)CCOc1ccc(/C=C3\SC(=O)NC3=O)cc1)O2 (stereo not given) | 43 | 70 |  |
| Cc1c(C)c2c(c(C)c1O)C(CN(C)CCOc1ccc(CC3SC(=O)NC3=O)cc1)C(C)(C)O2 (stereo not given) | 17 | 33 |  |
| Cc1c(C)c2c(c(C)c1O)CCC(C)(CN(C)CCOc1ccc(CC3SC(=O)NC3=O)cc1)O2 (stereo not given) | 4 |  | inactive |
| Cc1c(C)c2c(c(C)c1O)C(CN(C)CCOc1ccc(/C=C3\SC(=O)NC3=O)cc1)C(C)(C)O2 (stereo not given) | 46 | 71 |  |
| Cc1c(C)c2c(c(C)c1O)CCC(C)(CN(C)CCOc1ccc(/C=C3\SC(=O)NC3=O)cc1)O2.O=C(O)/C=C\C(=O)O (stereo not given) | 20 | 60 |  |
| CS(=O)(=O)O.Cc1c(C)c2c(c(C)c1O)CCC(C)(CN(C)CCOc1ccc(/C=C3\SC(=O)NC3=O)cc1)O2 (stereo not given) | 20 | 70 |  |
| Cc1c(C)c2c(c(C)c1O)C(CN(C)CCOc1ccc(/C=C3\SC(=O)NC3=O)cc1)C(C)(C)O2.O=C(O)/C=C\C(=O)O (stereo not given) | 35 | 33 |  |
| Cc1c(C)c2c(c(C)c1O)C(COc1ccc(CC3SC(=O)NC3=O)cc1)C(C)(C)O2 (stereo not given) | 19 | 40 |  |
| Cc1c(C)c2c(c(C)c1O)CCC(C)(CNCCOc1ccc(/C=C3\SC(=O)NC3=O)cc1)O2 (stereo not given) | 6 | 29 |  |
| Cc1c(C)c2c(c(C)c1O)CCC(C)(COc1ccc(CC3SC(=O)NC3=O)cc1)O2 (stereo not given) [TROGLITAZONE] | 24 | 50 |  |
| Cc1c(C)c2c(c(C)c1O)CCC(C)(CN(C)CCOc1ccc(/C=C3\SC(=O)NC3=O)cc1)O2.Cl (stereo not given) | 31 | 30 |  |
| Cc1c(C)c2c(c(C)c1OCc1ccccc1)CCC(C)(CN(C)CCOc1ccc(/C=C3\SC(=O)NC3=O)cc1)O2 (stereo not given) | 39 | 32 |  |
| Cc1c(C)c2c(c(C)c1OCc1ccccc1)C(CN(C)CCOc1ccc(/C=C3\SC(=O)NC3=O)cc1)C(C)(C)O2 (stereo not given) | 23 |  | inactive |
